Assay results from patent US20210395651A1, “COMPOUNDS STABILIZING HYDROLASES IN LIQUIDS” (BASF SE, priority 2018, published 2021).

Target: T1, Lipolase® 100L (Thermomyces lanuginosus, UniProt O59952)
T1 construct: purchased Sigma-Aldrich
T1 sequence (O59952 23-291): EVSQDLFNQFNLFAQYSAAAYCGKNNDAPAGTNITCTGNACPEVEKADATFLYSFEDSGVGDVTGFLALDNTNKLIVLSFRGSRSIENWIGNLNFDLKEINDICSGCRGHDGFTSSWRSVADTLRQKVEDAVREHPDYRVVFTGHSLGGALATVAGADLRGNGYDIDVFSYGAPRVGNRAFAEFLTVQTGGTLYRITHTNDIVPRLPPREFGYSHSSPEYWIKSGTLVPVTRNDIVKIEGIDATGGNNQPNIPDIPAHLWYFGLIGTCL
Assay: Lipase storage stability in liquid formulations at 37° C. (pNP-valerate activity)
Format: biochemical, Thermomyces lanuginosa
Settings: for lipase activity, 3 d: 3 d storage at 37° C.; for lipase activity, 7 d: 7 d storage at 37° C.; for lipase activity, 14 d: 14 d storage at 37° C.; for lipase activity, 21 d: 21 d storage at 37° C.; for lipase activity, 28 d: 28 d storage at 37° C.; for lipase activity, 35 d: 35 d storage at 37° C.; for lipase activity, T0: relative to 100% value of reference formulation at time 0
Protocol: The storage stability of Lipase was assessed at 37° C.
Base test formulations were manufactured by making base formulations I to V by mixing the components according to Table 1.
The respective component (a) or comparative compound was added, if applicable, to the respective base formulation in amounts as indicated in Table 1.
Lipase used: Lipolase® 100L (CAS-No. 9001-62-1, EC-No. 232-619-9) was purchased from Sigma-Aldrich.
The amount of lipase as provided in Table 1 refers to active protein.
Water was added to accomplish the balance to 100.
Lipolase activity at certain points in time as indicated in Table 2 was be determined by employing pNitrophenol-valerate (2.4 mM pNP-C5 in 100 mM Tris pH 8.0, 0.01% Triton X100) as a substrate. The absorption at 405 nm was measured at 20° C. every 30 seconds over 5 minutes.
The slope (absorbance increase at 405 nm per minute) of the time dependent absorption-curve is directly proportional to the activity of the lipase.
The […] activity values provided in Table 2 were calculated referring to the 100% value determined in the reference formulation at the time 0.
The nomenclature of formulations is as follows: the Roman number before the full stop characterizes the base formulation, the Arabian number the type of compound (A.# compound according to invention (component (a)); (B.#) comparative compound).

[1] = base formulation I. (Lipolase 0.2 wt%, tested compound 2.5 wt%)
[2] = base formulation II. (Lipolase 0.2 wt%, tested compound 2.5 wt%)
[3] = base formulation IV. (Lipolase 0.2 wt%, tested compound 2.0 wt%)
[4] = base formulation III. (Lipolase 0.2 wt%, tested compound 2.0 wt%)
[5] = base formulation V. (Lipolase 0.2 wt%, tested compound 2.0 wt%)

Compound | lipase activity, 3 d [1] | lipase activity, 7 d [1] | lipase activity, 14 d [1] | lipase activity, 21 d [1] | lipase activity, 28 d [1] | lipase activity, 35 d [1] | lipase activity, T0 [1] | lipase activity, 3 d [2] | lipase activity, 7 d [2] | lipase activity, 14 d [2] | lipase activity, 21 d [2] | lipase activity, 28 d [2] | lipase activity, 35 d [2] | lipase activity, T0 [2] | lipase activity, 3 d [4] | lipase activity, 7 d [4] | lipase activity, 14 d [4] | lipase activity, 21 d [4] | lipase activity, 28 d [4] | lipase activity, 35 d [4] | further results
CC(=O)OCC(COC(C)=O)OC(C)=O [B.4, glyceroltriacetate (triacetine), reference compound] | 91% | 84% | 72% | 56% | 45% | 39% | 98% | 87% | 77% | 67% | 56% | 42% | 35% | 95% |  |  |  |  |  |  | lipase activity, 3 d [3]: 91%; lipase activity, 7 d [3]: 82%; lipase activity, 14 d [3]: 73%; lipase activity, 21 d [3]: 59%; lipase activity, 28 d [3]: 50%; lipase activity, 35 d [3]: 46%; lipase activity, T0 [3]: 97%
CCOC(=O)CC(O)(CC(=O)O)C(=O)O (stereo not shown) [A.6, Monoethylcitrate] |  |  |  |  |  |  |  | 100% | 95% | 91% | 84% | 80% | 71% | 102% | 96% | 91% | 87% | 82% | 79% | 74% | lipase activity, T0 [4]: 96%; lipase activity, 3 d [3]: 96%; lipase activity, 7 d [3]: 92%; lipase activity, 14 d [3]: 89%; lipase activity, 21 d [3]: 86%; lipase activity, 28 d [3]: 85%; lipase activity, 35 d [3]: 78%; lipase activity, T0 [3]: 98%
O=C(CC(O)(CC(=O)OCc1ccccc1)C(=O)OCc1ccccc1)OCc1ccccc1 [A.8, Tribenzylcitrate] |  |  |  |  |  |  |  | 94% | 90% | 87% | 83% | 81% | 77% | 97% |  |  |  |  |  |  | lipase activity, 3 d [5]: 96%; lipase activity, 7 d [5]: 93%; lipase activity, 14 d [5]: 88%; lipase activity, 21 d [5]: 85%; lipase activity, 28 d [5]: 82%; lipase activity, 35 d [5]: 77%; lipase activity, T0 [5]: 98%
CCOC(=O)CC(O)(CC(=O)OCC)C(=O)OCC [A.1, Triethylcitrate] | 102% | 96% | 94% | 87% | 85% | 80% | 100% | 101% | 94% | 90% | 88% | 83% | 80% | 100% | 98% | 96% | 93% | 90% | 85% | 82% | lipase activity, T0 [4]: 100%; lipase activity, 3 d [3]: 96%; lipase activity, 7 d [3]: 94%; lipase activity, 14 d [3]: 93%; lipase activity, 21 d [3]: 88%; lipase activity, 28 d [3]: 85%; lipase activity, 35 d [3]: 82%; lipase activity, T0 [3]: 98%; lipase activity, 3 d [5]: 96%; lipase activity, 7 d [5]: 93%; lipase activity, 14 d [5]: 89%; lipase activity, 21 d [5]: 84%; lipase activity, 28 d [5]: 81%; lipase activity, 35 d [5]: 79%; lipase activity, T0 [5]: 100%
Diethylcitrate [A.7] | 97% | 91% | 85% | 81% | 76% | 69% | 99% | 94% | 91% | 86% | 82% | 77% | 72% | 99% | 96% | 93% | 87% | 83% | 77% | 72% | lipase activity, T0 [4]: 97%; lipase activity, 3 d [3]: 95%; lipase activity, 7 d [3]: 93%; lipase activity, 14 d [3]: 88%; lipase activity, 21 d [3]: 85%; lipase activity, 28 d [3]: 80%; lipase activity, 35 d [3]: 74%; lipase activity, T0 [3]: 97%
CCOC(=O)CC(CC(=O)OCC)(OC(C)=O)C(=O)OCC [A.5, Acetyltriethylcitrate] | 100% | 97% | 92% | 86% | 81% | 74% | 97% | 98% | 97% | 93% | 90% | 85% | 81% | 102% | 95% | 93% | 88% | 85% | 80% | 77% | lipase activity, T0 [4]: 98%
CCCOC(=O)CC(O)(CC(=O)OCCC)C(=O)OCCC [A.2, Tripropylcitrate] | 100% | 98% | 94% | 90% | 87% | 82% | 101% |  |  |  |  |  |  |  | 100% | 101% | 97% | 94% | 90% | 87% | lipase activity, T0 [4]: 102%
